Assay results taken from patent US8323252B2, “Method of treating skin ulcers using oxidative reductive potential water solution” (priority 2005, dated 2012).
Where two headings read alike, the source gives them in different places.

Legend:
[1] = tested on: 8-OHdG adducts in HDFs; conditions: human, 30 min, 500 μM
[2] = tested on: primary HDF cultures; conditions: human, 1 month, 5 μM
[3] = tested on: murine polychromatic erythrocytes; conditions: for PCE/NCE ratio: cyclophosphamide 8 mg/mL, 12.5 ml/kg i.p. on day 2
Procedure: The mammalian in vivo micronucleus test is used for the identification of substances which cause damage to chromosomes or the mitotic apparatus of murine polychromatic erythrocytes. This damage results in the formation of “micronuclei,” intracellular structures containing lagging chromosome fragments or isolated whole chromosomes. […] The positive control mice received a single intraperitoneal injection of cyclophosphamide (8 mg/mL, 12.5 ml/kg) on day 2. All mice were observed immediately after injection for any adverse reactions. […] On day 3, all mice were weighed and terminated.
The femurs were excised from the terminated mice, the bone marrow was extracted, and duplicate smear preparations were performed for each mouse. The bone marrow slides for each animal were read at 40× magnification. The ratio of polychromatic erythrocytes (PCE) to normochromatic erythrocytes (NCE), an index of bone marrow toxicity, was determined for each mouse by counting a total of at least 200 erythrocytes. Then a minimum of 2000 scoreable PCE per mouse were evaluated for the incidence of micronucleated polychromatic erythrocytes. Statistical analysis of the data were done using the Mann and Whitney test (at 5% risk threshold) from a statistical software package (Statview 5.0, SAS Institute Inc., USA).

| increase of 8-OHdG adducts relative to control-treated or ORP water solution-treated cells [1] | cells with increased SA-β-Gal expression [2] | SMILES | PCE/NCE ratio ([3]; females) | number of polychromatic erythrocytes bearing micronuclei ([3]; males, ORP water solution = Microcyn 10%, 12.5 ml/kg i.p.) | PCE/NCE ratio ([3]; males) |
| --- | --- | --- | --- | --- | --- |
| about 25 fold | 86% | OO [HP, hydrogen peroxide] |  |  |  |
|  |  | O=P1(N(CCCl)CCCl)NCCCO1 (centres unmarked) [cyclophosphamide] | 0.73 | 11.0 | 0.77 |
